Test results taken from US20070135366A1, “Method for assessing cancerous state” (SUMITOMO CHEMICAL COMPANY, LIMITED., priority 2003, published 2007).

Key:
[1] = test system: Fibrillin2 gene expression in pancreatic cancer cell line PANC-1; assay: Effect of methylation inhibitor on expression of Fibrillin2 gene (Real Time PCR of mRNA-derived DNA) in PANC-1; format: cell-based, human; settings: added on first and third day after seeding, cells recovered on fourth day
Description: (§1) seven kinds of human-derived pancreatic cancer cell lines (BXPc3, HPAF-II, Capan-2, MiaPaCa-2, Hs766T, PANC-1 and HPAC) and immortal (normal) pancreatic ductal epithelial cells lines (HPDE-4/E6E7 and HPDE6-E6E7c7) were cultured to 70% confluent in an exclusively used medium, and thereafter, each cell was corrected. 1 ml of an ISOGEN solution (Nippon Gene) was mixed with collected each cell (wet weight about 100 mg), this was homogenized, and 0.2 ml of chloroform was added thereto to suspend them. After suspending, the mixture was centrifuged (4° C., 15000×g, 15 minutes) to recover the supernatant. […]
(§2) A reaction solution of PCR was used which was obtained by mixing 50 ng of a cDNA as a template, each 1 μl of two kinds of 10 pmol/μl aforementioned primer solution, 4 μl of 2.5 mM dNTP, 4 μl of 5 mM dUTP, 5 μl of 10×SYBR Green PCR Buffer, 6 μl of 25 mM MgCl2 and 0.3 μl of a 5U/μl thermos table DNA polymerase (AmpliTaq Gold), 0.5 μl of AmpEraseUNG and adding sterilized ultrapure water thereto to an amount of solution of 50 μl. […] When a DNA derived from mRNA of Fibrillin2 gene and GAPDH gene was amplified, after the reaction solution was retained at 95° C. for 10 minutes, Real Time PCR was performed at the conditions under which each cycle was 30 seconds at 95° C., 30 seconds at 59° C. and 30 seconds at 72° C. to quantitate Fibrillin2 gene and GAPDH gene.

[2] = test system: Fibrillin2 gene expression in pancreatic cancer cell line HPAC; assay: Effect of methylation inhibitor on expression of Fibrillin2 gene (Real Time PCR of mRNA-derived DNA) in HPAC; format: cell-based, human; settings: added on first and third day after seeding, cells recovered on fourth day
Description: as §1, §2

Measured: DNA derived from a mRNA of Fibrillin2 gene (expression of Fibrillin2 gene)

Nc1ncn([C@H]2C[C@H](O)[C@@H](CO)O2)c(=O)n1 [5Aza-dC, 5-aza-2′-deoxytidine]
detected: [1]; PANC-1 cultured in the presence of 0.5 μM 5Aza-dC | [1]; PANC-1 cultured in the presence of 1 μM 5Aza-dC | [2]; HPAC cultured in the presence of 0.5 μM 5Aza-dC | [2]; HPAC cultured in the presence of 1 μM 5Aza-dC
